{"source": "patent US20140255968A1", "about": "“METHOD FOR FABRICATING A PATTERNED SUBSTRATE FOR A CELL CULTURE, A PATTERNED SUBSTRATE FOR CELL CULTURE, AND A CELL CHIP” (RESEARCH & BUSINESS FOUNDATION SUNGKYUNKWAN UNIVERSITY, priority 2013, published 2014)", "system": "bovine aortic endothelial cells (BAECs)", "assay": "Angiogenesis assay on patterned cell chip", "format": "cell-based", "protocol": "In an angiogenesis assay using the fabricated substrate, bovine aortic endothelial cells (BAECs) were used. To prevent contamination, the substrate fabricated in Example 1-2 was placed in a Petri dish and irradiated with UV light for 16 hours prior to the test. BAEC cells were seeded in 2 ml of complete medium (low glucose DMEM (Dulbecco's Modified Eagle's Medium, WELGENE) containing 1× penicillin/streptomycine (WELGENE) and 20% fetal bovine serum (FBS, WELGENE)) at a cell concentration of 2.5×10^5 cells/ml, and then cultured in a 5% CO2 incubator at 37° C. for 6 hours. Next, the complete medium was replaced with the following media. • untreated plate (normal control group): 10 ml of low-glucose DMEM containing 1× penicillin/streptomycin and 0.2% FBS; • LPS (lipopolysaccharide)-treated plate (negative control group): 10 ml of low-glucose DMEM containing 1× penicillin/streptomycin, 0.2% FBS and 100 ng/ml of LPS; or • VEGF (vascular endothelial growth factor)-treated plate (positive control group): 10 ml of low-glucose DMEM containing 1× penicillin/streptomycin, 0.2% FBS and 100 ng/ml of VEGF. To prevent cells on the substrate from being dried due to evaporation of the media in the incubator, the volume of the media was increased to 10 ml, and to more accurately confirm the effect of the positive control group (VEGF-treated plate), starvation basic medium having a decreased FBS (a kind of growth factor) concentration of 0.2% was used.", "key": {"[1]": {"settings": "100 ng/ml in low-glucose DMEM with 0.2% FBS, 18 hours, optical microscope"}}, "note": "Entries after “also recorded” stand apart in the source; their conditions may differ. Where two headings read alike, the source gives them in different places.", "data": [{"substance": "vascular endothelial growth factor [VEGF]", "values": [{"measurement": "angiogenesis on the patterned cell chip compared with the untreated case", "value": "angiogenesis was induced and promoted"}, {"measurement": "formation of tube-shaped blood vessels", "setting": "[1]", "value": "tube-shaped blood vessels were newly formed"}, {"measurement": "number of cells in the regions between cell adsorbing H2/He plasma treated areas, compared with untreated", "setting": "[1]", "value": "proliferation of cells significantly increased; also recorded: significantly larger number of the cells"}]}, {"substance": "lipopolysaccharide [LPS]", "values": [{"measurement": "angiogenesis on the patterned cell chip compared with the untreated case", "setting": "[1]", "value": "angiogenesis was inhibited"}, {"measurement": "number of cells in the regions between cell adsorbing H2/He plasma treated areas, compared with untreated", "setting": "[1]", "value": "significant decrease in the number of cells; also recorded: smaller number of cells"}]}]}
